Legend:
plasma apoE = assay: Plasma apoE levels in vivo in rats fed a normal diet; design: species or system rat; conditions: orally, 400 mg/kg per day for 5 days
Excerpt: A convenient model for the screening of apoE modulating compounds is the model described in Leininger-Muller & Siest, 1996. This model involves the use of rats fed a normal diet. Selected compounds of formula (I) ae submitted to the in vivo rat test. Following are the results for compound 1, diethyl α-(dimethoxyphosphinyl)-p-chlorobenzyl phosphate: [drawing 3]
Two groups of 4 or 5 OFA rats (Iffa-Credo, France) weighing between 140 g and 160 g were acclimatized for at least one week, allowed UAR food and tap water ad libitum, under a 12/12 hours light/obscurity cycle (7.00 am-7.00 pm) then treated daily between 3.00 pm and 4.00 pm with test compounds ([…]) p.o. in a vehicle volume of 1 ml for 5 days. Compound 1 was given as a suspension in 20% Tween-80 supplemented with 0.5% carboxymethylcellulose. Control group received 1 ml vehicle alone. After a treatment period of 5 days, rats were weighed, sacrificed by decapitation under pentobarbital anesthesia after an overnight fast. Blood was collected on EDTA and plasma was used for analysis. When given orally to rats at the dose of 400 mg/kg per day for 5 days, compound 1 increased plasma apoE by 61±8%.

apoE in sciatic nerve = assay: Sciatic nerve tissue apoE levels in vivo, rat model of sciatic injury (ELISA); conditions: rats, orally, 400 mg/kg/day for 37 days; % change from control
Procedure: A rat model of sciatic injury was established according to Goodrum & Boudin, 1996. Rats with or without nerve injury were treated orally with compound 1 (400 mg/kg for 5 weeks). The amount of apoE was determined in homogenates of the sciatic nerves by ELISA using a goat anti-apolipoprotein E antibody. A dilution to 1/200 of rat plasma was coated on microtiter plates; apoE was recognized by the polyclonal antibody; the conjugate (anti-goat IgG peroxidase) antibody was then added for substrate biochemical recognition. Apolipoprotein E was expressed as % change from mean control value. Cholesterol was measured with a commercially available enzymatic kit (Bioreac, Switzerland). Results were expressed as % change from control group.

THP-1 cells = assay: In vitro apoE secretion by THP-1 cells (ELISA); assay type: cell-based, human; conditions: 72 hours incubation, ELISA of culture medium
Excerpt: The in vitro assay comprises determining the effect of a compound of formula (I) in modulating the secretion of apoE by an apoE secreting cell line (e.g., a monocyte-macrophage cell line such as the THP-1 cell line, a liver derived cell line such as the HepG2 cell line, an intestinal derived cell line such as the CaCo2 cell line, or a brain derived cell line such as the astrocytoma CCF-STTG1 cell line). The experimental details for use of the THP-1 cell line in the in vitro assay are provided below.
The THP-1 cell line was derived from the peripheral blood of a child with acute monocytic leukaemia and were obtained from the European Collection of Animal Cell Cultures (ECACC, #88081201). […] The cells are grown as non-adherent cells in RPMI 1640 culture medium, 2 mM glutamine, 20 μM 2-mercaptoethanol. Fresh medium is added to maintain cell density between 2 and 9×10^5 cells/ml. […]
Ninety-six well-microtiter plates are coated by incubating with a 5% gelatin solution from porcine skin, bloom 60 in 50 mM carbonate-bicarbonate buffer, pH9.6 at the concentration of 200 μl/well, for 2 hours at 37° C. The coating solution is carefully removed and the sample to be analyzed was added (100 μl/well) at the appropriate dilution. […] The absorbance at 492 nm versus 620 nm is read on a microplate photometer and the results are then converted in human apoE ng equivalent. […]

apoE plasma levels = assay: ApoE plasma levels in vivo in the rat (ATRA)

Structure (SMILES): CCOP(=O)(OCC)OC(c1ccc(Cl)cc1)P(=O)(OC)OC (stereo not drawn) [compound 1, diethyl α-(dimethoxyphosphinyl)-p-chlorobenzyl phosphate]
- increase of plasma apoE (plasma apoE): 61±8%
- increase of apoE in the contralateral nerve (apoE in sciatic nerve): 58%
- increase of apoE in the crushed sciatic nerve (apoE in sciatic nerve): 154%

Structure (SMILES): CC1=C(/C=C/C(C)=C/C=C/C(C)=C/C(=O)O)C(C)(C)CCC1 [ATRA, all-trans retinoic acid]
- production of apoE by THP-1 cells (THP-1 cells): decreased the production of apoE
- apoE plasma levels observed in vivo in the rat (apoE plasma levels): decreased apoE plasma levels

Source: patent US20060009423A1, “Phosphonate-phosphate and diphosphonate apolipoprotein e modulators” (priority 2002, published 2006)
